Data on 10 compounds can be found in US9018206B2, “Carboxamide compounds and their use as calpain inhibitors” (AbbVie Deutschland GmbH & Co. KG, priority 2009, dated 2015).

Format in all cases: biochemical
Experiment [1] deals with T1, calpain-I isolated from human erythrocytes (Homo sapiens, UniProt P07384).
T1 construct: calpain-I—isolated from human erythrocytes; purchased Calbiochem 208713; host or cells: human erythrocytes (tissue-derived)
T1 sequence (P07384 1-714): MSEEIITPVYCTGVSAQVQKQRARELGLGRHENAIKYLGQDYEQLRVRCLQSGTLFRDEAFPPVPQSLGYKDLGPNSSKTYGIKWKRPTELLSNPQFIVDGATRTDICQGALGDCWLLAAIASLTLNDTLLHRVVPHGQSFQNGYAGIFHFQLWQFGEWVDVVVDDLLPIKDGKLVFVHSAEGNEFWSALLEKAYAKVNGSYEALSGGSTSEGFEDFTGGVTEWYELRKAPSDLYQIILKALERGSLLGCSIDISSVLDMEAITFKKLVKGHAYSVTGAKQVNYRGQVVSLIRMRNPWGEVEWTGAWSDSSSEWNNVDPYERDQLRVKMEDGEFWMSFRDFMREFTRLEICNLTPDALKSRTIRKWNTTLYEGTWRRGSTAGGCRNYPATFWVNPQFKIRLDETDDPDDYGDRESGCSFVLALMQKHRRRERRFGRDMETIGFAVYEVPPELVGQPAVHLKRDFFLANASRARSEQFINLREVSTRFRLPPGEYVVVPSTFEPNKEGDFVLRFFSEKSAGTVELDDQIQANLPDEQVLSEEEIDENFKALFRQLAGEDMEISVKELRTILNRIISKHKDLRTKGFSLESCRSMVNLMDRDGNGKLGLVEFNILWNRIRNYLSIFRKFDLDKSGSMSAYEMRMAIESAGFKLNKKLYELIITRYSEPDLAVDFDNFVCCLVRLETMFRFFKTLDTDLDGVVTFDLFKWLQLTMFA
T1 sequence (P04632 1-268 partner): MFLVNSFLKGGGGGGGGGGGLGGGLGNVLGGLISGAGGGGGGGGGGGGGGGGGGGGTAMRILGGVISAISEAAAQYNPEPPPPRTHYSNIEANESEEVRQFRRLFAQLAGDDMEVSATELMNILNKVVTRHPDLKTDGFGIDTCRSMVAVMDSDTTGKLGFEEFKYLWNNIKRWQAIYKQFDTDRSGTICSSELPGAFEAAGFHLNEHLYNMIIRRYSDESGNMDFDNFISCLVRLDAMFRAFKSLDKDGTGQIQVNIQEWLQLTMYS
Put plainly: Calpain I enzyme inhibition in vitro (kinetic fluorescence assay). The note with it: apparent Ki from IC50 (Cheng-Prussoff); 20 nM calpain-I, 100 μM Suc-Leu-Tyr-AMC, pH 7.3, room temperature. Here is the method:
(§1) Testing for blockade of the corresponding enzymic activities was carried out by means of kinetic fluorescence assays (excitation 390 nm, emission 460 nm).
(§2) Apparent Ki values were calculated from the experimentally determined IC50 values by the Cheng-Prussoff relation assuming a reversible competitive enzyme inhibition. The Km values of the substrates used under the assay conditions indicated above were: 90 μM (Z-Phe-Arg-AMC, cathepsin B), 10 μM (Z-Gly-Pro-Arg-AMC, cathepsin K), 2 μM (Z-Phe-Arg-AMC, cathepsin L), and 30 μM (Z-Val-Val-Arg-AMC, cathepsin S).
(§3) The indicated Ki values are averages of the inhibition constants calculated on the basis of 2 to 4 independent dose-effect plots.
(§4) • 20 nM calpain-I—isolated from human erythrocytes (Calbiochem #208713), 100 μM Suc-Leu-Tyr-AMC (Bachem #I-1355) as substrate in buffer with 62 mM imidazole, 0.3 mM CaCl2, 0.10% CHAPS, 0.05% BSA, 1 mM DTT at pH 7.3 and room temperature. 1. Cathepsin B: • 0.25 nM cathepsin B—isolated from human liver (Calbiochem #219362), 100 μM Z-Phe-Arg-AMC (Bachem #I-1160) as substrate 50 mM MES, 2 mM EDTA, 0.05% Brij 35, 2.5 mM L-cysteine, pH 6.0, room temperature. 3. Cathepsin K: • 3 nM cathepsin K activated from recombinant human procathepsin K from E. coli (Calbiochem #342001), 10 μM Z-Gly-Pro-Arg-AMC (Biomol #P-142) as substrate in 50 mM MES, 2 mM EDTA, 0.05% Brij 35, 2.5 mM L-cysteine, pH 6.0, room temperature. 4. Cathepsin L: • 1 nM cathepsin L—isolated from human liver (Calbiochem #219402), 2 μM Z-Phe-Arg-AMC (Bachem #I-1160) as substrate in 50 mM MES, 2 mM EDTA, 0.05% Brij 35, 2.5 mM L-cysteine, pH 6.0, room temperature. 5. Cathepsin S: • 0.5 nM recombinant human cathepsin S from E. coli (Calbiochem #219343), 20 μM Z-Val-Val-Arg-AMC (Bachem #I-1540) as substrate in 50 mM MES, 2 mM EDTA, 0.05% Brij 35, 2.5 mM L-cysteine, pH 6.0, room temperature.

Experiment [2] deals with T2, cathepsin B isolated from human liver (Homo sapiens, UniProt P07858).
T2 construct: cathepsin B—isolated from human liver; purchased Calbiochem 219362; host or cells: human liver (tissue-derived)
Put plainly: Cathepsin B enzyme inhibition in vitro (kinetic fluorescence assay). The note with it: Ki(cathepsin B)/Ki(calpain) ratio. Here is the method: as §1, §2, §3, §4

For experiment [3], the target named is T3, cathepsin K activated from recombinant human procathepsin K (Homo sapiens, UniProt P43235).
T3 construct: purchased Calbiochem 342001; host or cells: E. coli
T3 sequence (P43235 115-329): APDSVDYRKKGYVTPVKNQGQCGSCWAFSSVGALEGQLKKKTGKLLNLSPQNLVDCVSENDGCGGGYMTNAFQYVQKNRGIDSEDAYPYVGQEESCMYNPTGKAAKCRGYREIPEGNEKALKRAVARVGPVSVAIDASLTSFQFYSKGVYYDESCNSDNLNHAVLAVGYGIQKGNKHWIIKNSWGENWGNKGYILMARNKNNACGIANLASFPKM
Put plainly: Cathepsin K enzyme inhibition in vitro (kinetic fluorescence assay). The note with it: Ki(cathepsin K)/Ki(calpain) ratio. On the procedure: as §1, §2, §3, §4

In experiment [4] the target is T4, cathepsin L isolated from human liver (Homo sapiens, UniProt P07711).
T4 construct: cathepsin L—isolated from human liver; purchased Calbiochem 219402; host or cells: human liver (tissue-derived)
Nature of the experiment: Cathepsin L enzyme inhibition in vitro (kinetic fluorescence assay). The note with it: Ki(cathepsin L)/Ki(calpain) ratio. On the procedure:
as §1, §2, §3, §4

The target of experiment [5] is T5, recombinant human cathepsin S (Homo sapiens, UniProt P25774).
T5 construct: purchased Calbiochem 219343; host or cells: E. coli
Nature of the experiment: Cathepsin S enzyme inhibition in vitro (kinetic fluorescence assay). The note with it: Ki(cathepsin S)/Ki(calpain) ratio. Here is the method: as §1, §2, §3, §4

T5 sequence (P25774 115-331): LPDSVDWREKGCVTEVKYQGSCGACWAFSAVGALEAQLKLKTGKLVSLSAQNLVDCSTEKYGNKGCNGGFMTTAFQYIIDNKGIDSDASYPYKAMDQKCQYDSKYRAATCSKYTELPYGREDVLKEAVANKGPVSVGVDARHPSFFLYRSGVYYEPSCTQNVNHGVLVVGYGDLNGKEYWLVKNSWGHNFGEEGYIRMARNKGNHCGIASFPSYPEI
T4 sequence (P07711 114-333): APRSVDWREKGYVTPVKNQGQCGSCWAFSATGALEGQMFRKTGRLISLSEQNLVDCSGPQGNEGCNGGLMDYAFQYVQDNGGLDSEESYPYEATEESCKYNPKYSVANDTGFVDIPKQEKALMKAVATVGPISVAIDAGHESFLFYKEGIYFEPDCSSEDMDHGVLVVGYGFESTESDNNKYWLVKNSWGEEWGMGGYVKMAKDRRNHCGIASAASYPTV

As to `NC(=O)C(=O)C(Cc1ccccc1)NC(=O)[C@H]1CCC(=O)N1Cc1ccc(F)cc1` (stereo partly drawn) [Example 5, (2R)—N-(4-Amino-3,4-dioxo-1-phenylbutan-2-yl)-1-(4-fluorobenzyl)-5-oxopyrrolidine-2-carboxamide], the Ki in experiment [1] was 50 to 100 nM. Moreover, in experiment [2], the “Sel cat. B” value is given as “++ (10<Ki(cathepsin B)/Ki(calpain)≦30)”. In addition, the “Sel cat. K” value in experiment [3] is recorded as “++ (10<Ki(cathepsin B)/Ki(calpain)≦30)”. Besides, the “Sel cat. L” value in experiment [4] is reported as “++ (10<Ki(cathepsin B)/Ki(calpain)≦30)”. Besides, in experiment [5], the “Sel cat. S” value is on record as “++ (30<Ki(cathepsin B)/Ki(calpain)≦100)”.

Turning to `CCNC(=O)C(=O)C(Cc1ccccc1)NC(=O)[C@H]1CCC(=O)N1Cc1ccccc1Cl` (mixture of isomers) [Example 47, (2R)-1-(2-Chlorobenzyl)-N-(4-(ethylamino)-3,4-dioxo-1-phenylbutan-2-yl)-5-oxopyrrolidine-2-carboxamide], in experiment [1], the Ki was in the range of 100 to 600 nM. Further, the “Sel cat. B” value in experiment [2] is recorded as “+++ (Ki(cathepsin B)/Ki(calpain) ratio of >30)”. The “Sel cat. K” value in experiment [3] is given as “+++ (Ki(cathepsin K)/Ki(calpain) ratio of >30)”. Further, the “Sel cat. L” value in experiment [4] was “+++ (Ki(cathepsin L)/Ki(calpain) ratio of >30)”. In addition, the “Sel cat. S” value in experiment [5] is listed as “++ (30<Ki(cathepsin B)/Ki(calpain)≦100)”.

Take `NC(=O)C(=O)C(Cc1ccccc1)NC(=O)[C@H]1CCC(=O)N1Cc1cccc(F)c1` (stereo partly drawn) [Example 8, (2R)—N-(4-Amino-3,4-dioxo-1-phenylbutan-2-yl)-1-(3-fluorobenzyl)-5-oxopyrrolidine-2-carboxamide]: the Ki in experiment [1] is 50 to 100 nM. For the same compound, the “Sel cat. B” value in experiment [2] is recorded as “+++ (Ki(cathepsin B)/Ki(calpain) ratio of >30)”. The “Sel cat. K” value in experiment [3] is given as “++ (10<Ki(cathepsin B)/Ki(calpain)≦30)”. Also, in experiment [4], the “Sel cat. L” value is reported as “++ (10<Ki(cathepsin B)/Ki(calpain)≦30)”. The “Sel cat. S” value in experiment [5] is on record as “+++ (Ki(cathepsin S)/Ki(calpain) ratio of >100)”.

As for `O=C(NCc1nccs1)C(=O)C(Cc1ccccc1)NC(=O)[C@H]1CCC(=O)N1Cc1ccccc1` (mixture of isomers) [Example 59, (2R)-1-Benzyl-N-(3,4-dioxo-1-phenyl-4-(thiazol-2-ylmethylamino)butan-2-yl)-5-oxopyrrolidine-2-carboxamide], the Ki in experiment [1] was in the range of 100 to 600 nM. For the same compound, the “Sel cat. B” value in experiment [2] is recorded as “+++ (Ki(cathepsin B)/Ki(calpain) ratio of >30)”. Further, in experiment [3], the “Sel cat. K” value is on record as “+++ (Ki(cathepsin K)/Ki(calpain) ratio of >30)”. Also, the “Sel cat. L” value in experiment [4] is given as “++ (10<Ki(cathepsin B)/Ki(calpain)≦30)”. For the same compound, the “Sel cat. S” value in experiment [5] is listed as “+++ (Ki(cathepsin S)/Ki(calpain) ratio of >100)”.

Consider `O=C(NC1CC1)C(=O)C(Cc1ccccc1)NC(=O)[C@H]1CCC(=O)N1Cc1c(Cl)cccc1Cl` (mixture of isomers) [Example 61, (2R)—N-(4-(Cyclopropylamino)-3,4-dioxo-1-phenylbutan-2-yl)-1-(2,6-dichlorobenzyl)-5-oxopyrrolidine-2-carboxamide], for which the Ki in experiment [1] is 100 to 600 nM. Further, the “Sel cat. B” value in experiment [2] was “+ (5<Ki(cathepsin B)/Ki(calpain)≦10)”. In experiment [3], the “Sel cat. K” value is reported as “+++ (Ki(cathepsin K)/Ki(calpain) ratio of >30)”. In addition, the “Sel cat. L” value in experiment [4] is on record as “+++ (Ki(cathepsin L)/Ki(calpain) ratio of >30)”. For the same compound, the “Sel cat. S” value in experiment [5] was “+++ (Ki(cathepsin S)/Ki(calpain) ratio of >100)”.

As to `N#Cc1cccc(CN2C(=O)CC[C@@H]2C(=O)NC(Cc2ccccc2)C(=O)C(N)=O)c1` (stereo partly drawn) [Example 16, (2R)—N-(4-Amino-3,4-dioxo-1-phenylbutan-2-yl)-1-(3-cyanobenzyl)-5-oxopyrrolidine-2-carboxamide], the Ki in experiment [1] fell in the range of 100 to 600 nM. In addition, in experiment [2], the “Sel cat. B” value was “++ (10<Ki(cathepsin B)/Ki(calpain)≦30)”. For the same compound, the “Sel cat. K” value in experiment [3] is “+++ (Ki(cathepsin K)/Ki(calpain) ratio of >30)”. In addition, the “Sel cat. L” value in experiment [4] is “++ (10<Ki(cathepsin B)/Ki(calpain)≦30)”. Besides, the “Sel cat. S” value in experiment [5] is reported as “+ (10<Ki(cathepsin S)/Ki(calpain)≦30)”.

As for `NC(=O)C(=O)C(Cc1ccccc1)NC(=O)[C@H]1CCCC(=O)N1Cc1ccccc1` (stereo partly drawn) [Example 14, (2R)—N-(4-Amino-3,4-dioxo-1-phenylbutan-2-yl)-1-benzyl-6-oxopiperidine-2-carboxamide], the Ki in experiment [1] lay in the range of 50 to 100 nM. Further, the “Sel cat. B” value in experiment [2] was “++ (10<Ki(cathepsin B)/Ki(calpain)≦30)”. Besides, in experiment [4], the “Sel cat. L” value is given as “++ (10<Ki(cathepsin B)/Ki(calpain)≦30)”. Further, the “Sel cat. S” value in experiment [5] is listed as “++ (30<Ki(cathepsin B)/Ki(calpain)≦100)”.

With `CCCNC(=O)C(=O)C(Cc1ccccc1)NC(=O)[C@H]1CCC(=O)N1Cc1ccccc1` (mixture of isomers) [Example 26, (2R)-1-Benzyl-N-(3,4-dioxo-1-phenyl-4-(propylamino)butan-2-yl)-5-oxopyrrolidine-2-carboxamide], the Ki in experiment [1] was 100 to 600 nM. The “Sel cat. B” value in experiment [2] was “+++ (Ki(cathepsin B)/Ki(calpain) ratio of >30)”. Further, in experiment [3], the “Sel cat. K” value was “+++ (Ki(cathepsin K)/Ki(calpain) ratio of >30)”. For the same compound, the “Sel cat. L” value in experiment [4] was “++ (10<Ki(cathepsin B)/Ki(calpain)≦30)”.

As for `NC(=O)C(=O)C(Cc1ccccc1)NC(=O)[C@H]1CCC(=O)N1Cc1ccccc1OC(F)(F)F` (stereo partly drawn) [Example 9, (2R)—N-(4-Amino-3,4-dioxo-1-phenylbutan-2-yl)-5-oxo-1-[2-(trifluoromethoxy)-benzyl]pyrrolidine-2-carboxamide], the Ki in experiment [1] fell in the range of 50 to 100 nM. Moreover, the “Sel cat. K” value in experiment [3] is reported as “+++ (Ki(cathepsin K)/Ki(calpain) ratio of >30)”. The “Sel cat. L” value in experiment [4] was “+++ (Ki(cathepsin L)/Ki(calpain) ratio of >30)”. The “Sel cat. S” value in experiment [5] is given as “+++ (Ki(cathepsin S)/Ki(calpain) ratio of >100)”.

On to `NC(=O)C(=O)C(Cc1ccccc1)NC(=O)[C@H]1CCC(=O)N1c1ccccc1` (stereo partly drawn) [Example 15, (2R)—N-(4-Amino-3,4-dioxo-1-phenylbutan-2-yl)-5-oxo-1-phenylpyrrolidine-2-carboxamide], for which the “Sel cat. B” value in experiment [2] is recorded as “++ (10<Ki(cathepsin B)/Ki(calpain)≦30)”. In experiment [3], the “Sel cat. K” value is on record as “+ (5<Ki(cathepsin K)/Ki(calpain)≦10)”. The “Sel cat. L” value in experiment [4] is reported as “+ (5<Ki(cathepsin L)/Ki(calpain)≦10)”. The “Sel cat. S” value in experiment [5] is reported as “+ (10<Ki(cathepsin S)/Ki(calpain)≦30)”.
